Among the data in PubChem BioAssay (NCI) are GI50 and TGI values, retold here.

Some test systems named below: CCRF-CEM leukemia; RPMI-8226 leukemia; SN12C renal; NCI-H522 lung; CAKI-1 renal; SK-MEL-28 melanoma; SW-620 colon; DU-145 prostate; MDA-MB-435; HCT-15 colon.
Common to all, as to experiment: DTP human tumour cell line panel, 48 h

Each structure is given as a SMILES string.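 Following 48 hours of exposure in 96-well plates, responses at five concentrations were used to interpolate endpoints linearly. GI50 marks 50% less growth. TGI marks complete inhibition of growth.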 Where only a bound is given, the exact number is not on record here.

Take `COc1ccc(C=Nc2c(C(=O)Nc3cccc(Cl)c3C)sc3nc(C)c(C(=O)/C=C/c4ccc(OC)cc4)cc23)cc1`: the GI50 (commonly the concentration that inhibits growth by half) was 0.819 µM in the assay with CCRF-CEM leukemia; 1.5 µM in the assay on RPMI-8226 leukemia; 0.853 µM with SN12C renal; 0.157 µM with NCI-H522 lung; 0.652 µM in the assay with CAKI-1 renal; 0.288 µM in the assay on SK-MEL-28 melanoma. Further, the GI50 in the assay with SW-620 colon is 0.412 µM; in the assay on DU-145 prostate it was 0.638 µM; with MDA-MB-435 it was 0.103 µM; with HCT-15 colon, 0.382 µM. The TGI with CCRF-CEM leukemia, with RPMI-8226 leukemia, in the assay with SN12C renal, in the assay on CAKI-1 renal, in the assay on SK-MEL-28 melanoma and in the assay with SW-620 colon was above 50 µM each time. In addition, the TGI (commonly the concentration giving total growth inhibition) in the assay on DU-145 prostate was 14.6 µM; in the assay with MDA-MB-435, 0.227 µM; with HCT-15 colon it was above 50 µM.
Take `C[C@H]1/C(=C/C(=O)OCCN(C)C)CC[C@H]2[C@H]1C(=O)C[C@H]1C(C)(C)[C@@H](O)CC[C@]21C`: the TGI with CCRF-CEM leukemia, in the assay on RPMI-8226 leukemia, in the assay with SN12C renal, in the assay with NCI-H522 lung, in the assay on CAKI-1 renal and in the assay with SK-MEL-28 melanoma was above 100 µM each time. Also, the TGI with SW-620 colon, in the assay with DU-145 prostate, with MDA-MB-435 and in the assay on HCT-15 colon was above 100 µM throughout.
Take `CCCCC(CCCCCC(CCCC)NCc1ccc2c(c1)OCO2)NCc1ccc2c(c1)OCO2` (centres undefined): the GI50 with CCRF-CEM leukemia was 0.524 µM; in the assay with RPMI-8226 leukemia it was 0.276 µM; in the assay on SN12C renal it was 1.42 µM; in the assay with NCI-H522 lung it was 0.604 µM; with CAKI-1 renal it was 0.669 µM; in the assay with SK-MEL-28 melanoma, 0.188 µM. Further, the GI50 is 0.206 µM in the assay on SW-620 colon, 0.803 µM with DU-145 prostate, 0.199 µM with MDA-MB-435 and 0.326 µM in the assay with HCT-15 colon. Also, the TGI in the assay on CCRF-CEM leukemia was 2.58 µM; in the assay on RPMI-8226 leukemia, 0.805 µM; in the assay on SN12C renal, 2.96 µM; with NCI-H522 lung it was 1.27 µM; in the assay on CAKI-1 renal, 1.76 µM; in the assay with SK-MEL-28 melanoma it was 0.337 µM. Also, the TGI with SW-620 colon was 0.437 µM; with DU-145 prostate, 2.04 µM; in the assay with MDA-MB-435, 0.398 µM; in the assay with HCT-15 colon, 1.09 µM.
Take `O=C1/C=C/[C@@H](O)[C@@H]2C[C@@H](O)C[C@H]2/C=C/CCC[C@H](CCc2cccc3ccccc23)O1`: the GI50 is 0.136 µM in the assay on CCRF-CEM leukemia; 0.0847 µM in the assay with RPMI-8226 leukemia; 0.248 µM in the assay with SN12C renal; 0.234 µM in the assay with NCI-H522 lung; 0.239 µM in the assay on CAKI-1 renal; 0.0313 µM in the assay with SK-MEL-28 melanoma. Further, the GI50 is 0.0518 µM with SW-620 colon, 0.377 µM in the assay with DU-145 prostate, 0.0394 µM with MDA-MB-435 and 0.326 µM with HCT-15 colon. In addition, the concentration for total growth inhibition (TGI) in the assay on CCRF-CEM leukemia is 8.02 µM; with RPMI-8226 leukemia, 2.73 µM; in the assay with SN12C renal it was 11.5 µM; in the assay with NCI-H522 lung, 0.581 µM; in the assay on CAKI-1 renal, 3.08 µM; in the assay with SK-MEL-28 melanoma, 0.163 µM. For the same compound, the TGI was found to be 0.451 µM with SW-620 colon, 14.7 µM with DU-145 prostate, 3.43 µM in the assay with MDA-MB-435 and 10.5 µM with HCT-15 colon.
In the case of `Cn1c(=O)c(Oc2ccc(F)cc2F)cc2cnc(NC(C)(C)CO)nc21`, the GI50 in the assay with CCRF-CEM leukemia, in the assay on RPMI-8226 leukemia, in the assay on SN12C renal, in the assay with NCI-H522 lung, with CAKI-1 renal and in the assay on SK-MEL-28 melanoma was above 25 µM each time. Also, the GI50 in the assay with SW-620 colon, with DU-145 prostate, in the assay with MDA-MB-435 and in the assay with HCT-15 colon was above 25 µM throughout. Besides, the TGI in the assay with CCRF-CEM leukemia, in the assay with RPMI-8226 leukemia, with SN12C renal, in the assay on NCI-H522 lung, in the assay on CAKI-1 renal and in the assay with SK-MEL-28 melanoma was above 25 µM each time. For the same compound, the TGI in the assay on SW-620 colon, in the assay on DU-145 prostate, in the assay on MDA-MB-435 and in the assay on HCT-15 colon was above 25 µM throughout.
With `Cc1c2ccn(O)cc2c(C)c2c1nc1ccccc12`, the TGI with CCRF-CEM leukemia is above 60.1 µM; in the assay with RPMI-8226 leukemia, above 100 µM; with SN12C renal it was above 100 µM; in the assay with NCI-H522 lung, 22.3 µM; in the assay on CAKI-1 renal, above 51.7 µM; with SK-MEL-28 melanoma, above 100 µM. In addition, the TGI in the assay on SW-620 colon, in the assay on DU-145 prostate, in the assay on MDA-MB-435 and in the assay with HCT-15 colon was above 100 µM throughout.
Consider `COC1C(O)CC(OC2CC(OC3CC(O[C@@H]4C(=O)c5c(cc6cc(OC7CC(OC8CC(O)C(O)C(C)O8)C(O)C(C)O7)c(C)c(O)c6c5O)CC4[C@H](OC)C(=O)O)OC(C)C3O)OC(C)C2O)OC1C` (some centres undefined), for which the GI50 is 3.57 µM in the assay on CCRF-CEM leukemia; 1.73 µM in the assay with RPMI-8226 leukemia; 1.72 µM in the assay on SN12C renal; 1.7 µM with NCI-H522 lung; 2.6 µM in the assay with CAKI-1 renal; 1.48 µM in the assay on SK-MEL-28 melanoma. The GI50 in the assay on SW-620 colon is 2.52 µM; with DU-145 prostate it was 1.96 µM; in the assay on MDA-MB-435, 2.56 µM; in the assay with HCT-15 colon, 6.3 µM. Also, the TGI is above 33.3 µM in the assay on CCRF-CEM leukemia; above 33.3 µM in the assay with RPMI-8226 leukemia; above 33.3 µM in the assay on SN12C renal; above 33.3 µM in the assay on NCI-H522 lung; above 33.3 µM in the assay on CAKI-1 renal; 11.7 µM with SK-MEL-28 melanoma. In addition, the TGI in the assay on SW-620 colon is above 33.3 µM; in the assay with DU-145 prostate it was above 33.3 µM; in the assay on MDA-MB-435, 24.7 µM; with HCT-15 colon, above 33.3 µM.
As to `CN(CCCCCl)P(=O)(OCCS(=O)(=O)CC(NC(=O)CCC(N)C(=O)O)C(=O)NC(C(=O)O)c1ccccc1)OCC1OC(n2ccc(N)nc2=O)C(O)C1O` (centres undefined), the GI50 is 0.632 µM with CCRF-CEM leukemia; 14.7 µM in the assay with RPMI-8226 leukemia; above 60 µM in the assay with SN12C renal; 10.5 µM in the assay with NCI-H522 lung; 11 µM in the assay on CAKI-1 renal; 26.2 µM with SK-MEL-28 melanoma. Further, the GI50 in the assay on SW-620 colon was above 44.9 µM; in the assay on DU-145 prostate, 9.1 µM; in the assay with MDA-MB-435, 28.3 µM; in the assay with HCT-15 colon, above 75 µM. For the same compound, the TGI is above 75 µM in the assay with CCRF-CEM leukemia; above 68.8 µM in the assay with RPMI-8226 leukemia; above 75 µM in the assay with SN12C renal; above 75 µM with NCI-H522 lung; above 75 µM in the assay on CAKI-1 renal; above 75 µM in the assay on SK-MEL-28 melanoma. Further, the TGI in the assay on SW-620 colon, with DU-145 prostate, in the assay with MDA-MB-435 and in the assay on HCT-15 colon was above 75 µM each time.
